{
  "source": "patent US8703749B2",
  "about": "“Compositions and methods for treating Friedreich's Ataxia” (priority 2009, dated 2014)",
  "key": {"frataxin [1]": {"molecular_target": "T1, frataxin (Homo sapiens, UniProt Q16595)", "T1 sequence (Q16595 42-210)": "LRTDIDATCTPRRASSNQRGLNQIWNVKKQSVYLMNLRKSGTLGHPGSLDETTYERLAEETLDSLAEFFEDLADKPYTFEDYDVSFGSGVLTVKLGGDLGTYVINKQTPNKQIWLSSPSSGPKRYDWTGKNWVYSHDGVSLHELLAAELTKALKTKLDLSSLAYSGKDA", "assay": "Frataxin accumulation in HEK-293 Flp-In cells stably expressing frataxin 1-210 (WB, FACS)", "format": "cell-based", "design": "HEK-293 Flp-In cells stably transfected with frataxin^1-210; expressed in transfected cells", "settings": "HEK-293 Flp-In frataxin 1-210", "experimental": "(§1) Human embryonic kidney HEK-293 cells and Hela cells were maintained in DMEM supplemented with 10% FBS. HEK-293 were transfected with the calcium/phosphate precipitation method, using 20 μg total DNA (10 μg pIRES-frataxin and 10 μg HA-Ub, or corresponding empty vectors) on 10 cm dishes. Hela cells were transfected using Lipofectamine 2000 reagents (Invitrogen), according to manufacturer's instructions. Where indicated, the day after transfection, cells were treated for 16 h with 10 μM proteasome inhibitors, MG132 or Lactacystin, or 50 ng/ml DUB inhibitor Ubiquitin-Aldehyde. Flp-In-HEK-293 cells (Invitrogen) are HEK-293 variants allowing the stable and isogenic integration and expression of a transfected gene. Flp-In-HEK-293 cells were maintained in DMEM supplemented with 10% FBS and transfected with the calcium/phosphate precipitation method. Briefly, cells were plated on 10 cm dishes and transfected with 10 μg total DNA. The HEK-293 clone stably expressing frataxin^1-210 was previously described (4). The HEK-293 clone stably expressing frataxin^K147R was obtained from cultures in selection medium containing 100 μg/ml hygromycin B (Invitrogen). FRDA lymphoblasts GM15850, GM16798 and GM16241, as well control lymphoblasts GM15851, GM16241 and GM16215, were maintained in RPMI supplemented with 15% FBS. Treatments with specific ubiquitin-competing molecules were performed in 20% FBS containing medium. FRDA fibroblasts GM03816 were maintained in DMEM supplemented with 15% FBS.\n(§2) Cell extracts were prepared in modified RIPA buffer (10 mM sodium phosphate pH7.2, 150 mM NaCl, 1% Na deoxycholate, 0.1% SDS, 1% Np40, 2 mM EDTA) or IP buffer (50 mM Tris-HCl, pH 7.5, 150 mM NaCl, 1% Nonidet P-40, 5 mM EDTA, 5 mM EGTA) supplemented with Complete protease inhibitor cocktail and 2 mM N-Ethylmaleimide (NEM). For immunoblotting, 100 μg of protein extract were separated on 12% SDS-PAGE, blotted onto nitrocellulose membrane and detected with specific antibodies. For in vivo detection of ubiquitin-conjugates […] and 50 ng/ml Ubiquitin-Aldehyde were added to the lysis buffer. For immunoprecipitation, 5 mg of total protein extract prepared as above were incubated for 1-2 h at 4° C. with specific antibodies, previously conjugated to Protein G-sepharose (GE Healthcare). Immunocomplexes were then resolved and analysed by SDS-PAGE. […] Densitometric analysis was performed using ImageJ software.\nCells were collected after the indicated treatments and fixed for 20 minutes in 4% paraformaldehyde at room temperature. Cells were then permeabilized and blocked in a blocking solution (3% FBS in PBS) containing 0.2% Triton, for 1 hour at room temperature. Cells were then incubated overnight at 4° C. with anti-frataxin monoclonal antibody (MAB-10485, Immunological Science) or anti-Bcl2 monoclonal antibody (sc-509, Santa Cruz) diluted 1:200 in blocking solution. Cells were then washed 3 times in PBS and incubated for 1 hour at room temperature with FITC-conjugated goat anti-mouse IgG/IgM (BD Bioscience Pharmingen) diluted 1:200 in blocking solution. After washing 3 times with PBS cells were analyzed by flow cytometry (Becton Dickinson).\nHEK-293 Flp-In cells stably transfected with frataxin^1-210 were treated for the indicated times with 10 μM MG132. Total cell extracts were blotted as in A. One representative experiment out of four performed with similar results is shown in FIG. 18.\nFormula III induces frataxin precursor accumulation. HEK-293 Flp-In cells stably expressing frataxin^1-210 were treated for the indicated days with 20 μM of Formula III or 10 μM MG132. Total cell extracts were resolved on SDS-PAGE and analyzed with anti-frataxin antibody, or anti-tubulin, as a loading control.\nFormula III induces mature frataxin accumulation. HEK-293 Flp-In cells stably expressing frataxin^1-210 were treated and analyzed as in B. One representative experiment out of three performed with similar results is shown FIG. 5C. […]"}, "frataxin [2]": {"molecular_target": "T1, frataxin", "assay": "Frataxin ubiquitination in HEK-293 cells co-transfected with HA-Ub and frataxin 1-210 (IP/WB)", "format": "cell-based", "design": "HEK-293 cells transiently transfected with frataxin^1-210 and HA-tagged ubiquitin (HA-Ub); expressed in transfected cells; host or cells: HEK-293", "experimental": "as §1, with “The HEK-293 clone stably expressing frataxin^K147R was obtained from cultures in selection medium containing 100 μg/ml hygromycin B (Invitrogen). FRDA lymphoblasts GM15850, GM16798 and GM16241, as well control lymphoblasts GM15851, GM16241 and GM16215, were maintained in RPMI supplemented with 15% FBS. Treatments with specific ubiquitin-competing molecules were performed in 20% FBS containing medium. FRDA fibroblasts GM03816 were maintained in DMEM supplemented with 15% FBS.” left out\n(§3) Cell extracts were prepared in modified RIPA buffer (10 mM sodium phosphate pH7.2, 150 mM NaCl, 1% Na deoxycholate, 0.1% SDS, 1% Np40, 2 mM EDTA) or IP buffer (50 mM Tris-HCl, pH 7.5, 150 mM NaCl, 1% Nonidet P-40, 5 mM EDTA, 5 mM EGTA) supplemented with Complete protease inhibitor cocktail and 2 mM N-Ethylmaleimide (NEM). For immunoblotting, 100 μg of protein extract were separated on 12% SDS-PAGE, blotted onto nitrocellulose membrane and detected with specific antibodies. […] Immunocomplexes were then resolved and analysed by SDS-PAGE. […]\nFIG. 2A illustrates HEK-293 cells transiently transfected with frataxin^1-210 and HA-tagged ubiquitin (HA-Ub) (where indicated) were treated with 10 μM MG132 (MG) for 16 h. […] Total cell extracts (lanes 1-4) or anti-HA immunoprecipitates (lanes 5-8) were analyzed by WB with anti-frataxin antibody. […]\nFormula III prevents frataxin ubiquitination. […] Total cell extracts (upper panel) or anti-HA immunoprecipitated proteins (lower panel) were detected with anti-frataxin antibody."}, "frataxin [3]": {"molecular_target": "T1, frataxin", "assay": "Frataxin accumulation in FRDA lymphoblasts (FACS, SDS-PAGE/western blot)", "format": "cell-based", "settings": "FRDA lymphoblasts GM15850; 50 μM; 6 days", "experimental": "as §1, with “The HEK-293 clone stably expressing frataxin^K147R was obtained from cultures in selection medium containing 100 μg/ml hygromycin B (Invitrogen). FRDA lymphoblasts GM15850, GM16798 and GM16241, as well control lymphoblasts GM15851, GM16241 and GM16215, were maintained in RPMI supplemented with 15% FBS. Treatments with specific ubiquitin-competing molecules were performed in 20% FBS containing medium. FRDA fibroblasts GM03816 were maintained in DMEM supplemented with 15% FBS.” left out\nas §3\nCells were collected after the indicated treatments and fixed for 20 minutes in 4% paraformaldehyde at room temperature. […] After washing 3 times with PBS cells were analyzed by flow cytometry (Becton Dickinson).\nFRDA lymphoblasts GM15850 were cultured for 6 days in the presence of 50 μM Formula IV or Formula VI. Cells were then fixed, stained with anti-frataxin antibody or anti-Bcl2, as a control, and analyzed by flow cytometry. […]"}, "FRDA cells": {"tested_on": "FRDA cells", "assay": "Tolerability by FRDA cells", "format": "cell-based, human", "settings": "among the different ubiquitin-competing molecules"}, "frataxin precursor": {"tested_on": "frataxin precursor", "assay": "Cycloheximide chase of frataxin precursor degradation in HEK-293 Flp-In cells", "format": "cell-based, human", "settings": "100 μg/ml cycloheximide, 10 μM MG132", "experimental": "as §2\nHEK-293 Flp-In cells stably transfected with frataxin^1-210 (FIG. 1E) or empty vector (FIG. 1G) were treated for the indicated times with 100 μg/ml cycloheximide (CHX) in the presence or absence of 10 μM MG132 (MG). […] One representative experiment out of five performed with similar results is shown. Pre: precursor, tub: tubulin."}, "frataxin [4]": {"tested_on": "frataxin", "assay": "Frataxin precursor accumulation in HeLa cells transiently transfected with frataxin 1-210 (immunoblot)", "format": "cell-based, human", "settings": "10 μM proteasome inhibitor, 18 h", "experimental": "Human embryonic kidney HEK-293 cells and Hela cells were maintained in DMEM supplemented with 10% FBS. HEK-293 were transfected with the calcium/phosphate precipitation method, using 20 μg total DNA (10 μg pIRES-frataxin and 10 μg HA-Ub, or corresponding empty vectors) on 10 cm dishes. Hela cells were transfected using Lipofectamine 2000 reagents (Invitrogen), according to manufacturer's instructions. […] Flp-In-HEK-293 cells (Invitrogen) are HEK-293 variants allowing the stable and isogenic integration and expression of a transfected gene. Flp-In-HEK-293 cells were maintained in DMEM supplemented with 10% FBS and transfected with the calcium/phosphate precipitation method. Briefly, cells were plated on 10 cm dishes and transfected with 10 μg total DNA. The HEK-293 clone stably expressing frataxin^1-210 was previously described (4). […]\nas §3"}},
  "note": "Where a SMILES comes first, the peptide text is derived from it. The star is where a group is joined. Cbz = O=C(OCc1ccccc1)*",
  "data": [
    {"smiles": "O=[N+]([O-])c1cc(/C=N/NS(=O)(=O)c2ccc(F)cc2)c(O)c([N+](=O)[O-])c1", "note": "[Formula III]", "values": [
      {"measurement": "accumulation of the frataxin precursor", "setting": "frataxin [1]; 20 μM, days, WB", "result": "substantial accumulation"},
      {"measurement": "accumulation of mature frataxin", "setting": "frataxin [1]; 20 μM, over a longer time period, WB", "result": "substantial accumulation"},
      {"measurement": "ubiquitination of frataxin 1-210", "setting": "frataxin [2]; HEK-293 co-transfected with HA-Ub and frataxin 1-210, 20 μM and 50 μM, revealed after 48 h", "result": "efficiently prevents the ubiquitination"}
    ]},
    {"smiles": "O=[N+]([O-])c1cccc(/C=N/NS(=O)(=O)c2ccc(F)cc2)c1O", "note": "[Formula VI]", "values": [
      {"measurement": "frataxin accumulation by WB and FACS analysis", "setting": "frataxin [1]; 100 μM, 18 hours", "result": "effective in inducing frataxin accumulation"},
      {"measurement": "frataxin accumulation by FACS analysis", "setting": "frataxin [3]", "result": "discrete frataxin accumulation detectable in all cells"},
      {"measurement": "tolerability by FRDA cells", "setting": "FRDA cells", "result": "best tolerated"}
    ]},
    {"smiles": "CC(C)C[C@@H](C=O)NC(=O)[C@H](CC(C)C)NC(=O)[C@H](CC(C)C)NC(=O)OCc1ccccc1", "note": "[MG132] (Cbz-Leu-Leu-Leu-aldehyde)", "values": [
      {"measurement": "degradation of the endogenous frataxin precursor", "setting": "frataxin precursor; HEK-293 Flp-In empty vector", "result": "prevents the degradation"},
      {"measurement": "time-dependent degradation of the frataxin precursor", "setting": "frataxin precursor; HEK-293 Flp-In frataxin 1-210", "result": "blocked"},
      {"measurement": "accumulation of mature frataxin", "setting": "frataxin [1]; 10 μM MG132, after 24 hrs", "result": "~2.5", "unit": "fold"},
      {"measurement": "accumulation of the frataxin precursor", "setting": "frataxin [1]; 10 μM MG132, after 24 hrs", "result": "> 15", "unit": "fold"},
      {"measurement": "accumulation of mono-ubiquitinated frataxin", "setting": "frataxin [2]; HEK-293 co-transfected with frataxin 1-210 and HA-Ub, 10 μM MG132, 16 h", "result": "allows the accumulation and detection of mono-ubiquitinated frataxin"},
      {"measurement": "accumulation of poly-ubiquitinated frataxin", "setting": "frataxin [2]; HEK-293 co-transfected with frataxin 1-210 and HA-Ub, 10 μM MG132, 16 h, frataxin IP, anti-Ub WB", "result": "allows the accumulation and detection also of poly-ubiquitinated frataxin"},
      {"measurement": "accumulation of frataxin precursor compared to untreated cells", "setting": "frataxin [4]", "result": "significantly higher amounts of precursor"}
    ]},
    {"smiles": "CC(=O)N[C@@H](CSC(=O)[C@]1([C@@H](O)C(C)C)NC(=O)[C@H](C)[C@@H]1O)C(=O)O", "note": "[lactacystin]", "values": [
      {"measurement": "accumulation of frataxin precursor compared to untreated cells", "setting": "frataxin [4]", "result": "significantly higher amounts of precursor"}
    ]}
  ]
}
